A value given as a limit tells only on which side of the number the result lay.

Assay [1] deals with T1, Gamma-aminobutyric acid receptor subunit alpha-1 (Rattus norvegicus, UniProt P62813).
In assay [2] the target is Growth hormone secretagogue receptor type 1 (Homo sapiens, UniProt Q92847).
For assay [3], the target named is T2, Muscarinic acetylcholine receptor M2 (Homo sapiens, UniProt P08172).
T2 sequence (P08172 whole entry): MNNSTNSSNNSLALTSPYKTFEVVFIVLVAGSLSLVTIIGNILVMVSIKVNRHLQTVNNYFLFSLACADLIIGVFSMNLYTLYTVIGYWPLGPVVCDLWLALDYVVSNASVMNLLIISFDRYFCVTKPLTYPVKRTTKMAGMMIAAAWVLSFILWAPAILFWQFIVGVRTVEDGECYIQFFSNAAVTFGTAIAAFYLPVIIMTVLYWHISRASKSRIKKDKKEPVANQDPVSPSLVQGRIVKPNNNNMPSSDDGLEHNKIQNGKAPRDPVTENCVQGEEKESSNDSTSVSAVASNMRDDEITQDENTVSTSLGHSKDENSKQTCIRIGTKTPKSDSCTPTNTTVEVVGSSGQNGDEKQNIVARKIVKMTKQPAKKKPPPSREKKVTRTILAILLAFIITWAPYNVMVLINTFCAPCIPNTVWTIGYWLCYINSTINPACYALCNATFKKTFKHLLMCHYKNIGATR
In kind it is functional, cell-based.

The target of a further assay is Histamine H3 receptor (Homo sapiens, UniProt Q9Y5N1).
The target in a further assay is Adenosine receptor A2a (Homo sapiens, UniProt P29274).
The target in assay [4] is T3, 5-hydroxytryptamine receptor 1A (Homo sapiens, UniProt P08908).
T3 sequence (P08908 whole entry): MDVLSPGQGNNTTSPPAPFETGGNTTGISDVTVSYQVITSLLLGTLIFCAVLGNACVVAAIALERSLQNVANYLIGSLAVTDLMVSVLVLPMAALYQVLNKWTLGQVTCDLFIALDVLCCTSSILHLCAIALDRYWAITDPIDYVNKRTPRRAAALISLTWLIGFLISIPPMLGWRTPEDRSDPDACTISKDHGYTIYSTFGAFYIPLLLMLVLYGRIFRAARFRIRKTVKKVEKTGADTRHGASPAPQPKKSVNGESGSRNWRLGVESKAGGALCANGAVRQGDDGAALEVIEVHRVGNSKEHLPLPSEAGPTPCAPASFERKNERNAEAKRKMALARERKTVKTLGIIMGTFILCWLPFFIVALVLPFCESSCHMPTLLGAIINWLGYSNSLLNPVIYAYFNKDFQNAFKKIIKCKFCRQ
It counts as functional, cell-based.

A further assay addresses T4, Glucocorticoid receptor (Homo sapiens, UniProt P04150).
T4 sequence (P04150 whole entry): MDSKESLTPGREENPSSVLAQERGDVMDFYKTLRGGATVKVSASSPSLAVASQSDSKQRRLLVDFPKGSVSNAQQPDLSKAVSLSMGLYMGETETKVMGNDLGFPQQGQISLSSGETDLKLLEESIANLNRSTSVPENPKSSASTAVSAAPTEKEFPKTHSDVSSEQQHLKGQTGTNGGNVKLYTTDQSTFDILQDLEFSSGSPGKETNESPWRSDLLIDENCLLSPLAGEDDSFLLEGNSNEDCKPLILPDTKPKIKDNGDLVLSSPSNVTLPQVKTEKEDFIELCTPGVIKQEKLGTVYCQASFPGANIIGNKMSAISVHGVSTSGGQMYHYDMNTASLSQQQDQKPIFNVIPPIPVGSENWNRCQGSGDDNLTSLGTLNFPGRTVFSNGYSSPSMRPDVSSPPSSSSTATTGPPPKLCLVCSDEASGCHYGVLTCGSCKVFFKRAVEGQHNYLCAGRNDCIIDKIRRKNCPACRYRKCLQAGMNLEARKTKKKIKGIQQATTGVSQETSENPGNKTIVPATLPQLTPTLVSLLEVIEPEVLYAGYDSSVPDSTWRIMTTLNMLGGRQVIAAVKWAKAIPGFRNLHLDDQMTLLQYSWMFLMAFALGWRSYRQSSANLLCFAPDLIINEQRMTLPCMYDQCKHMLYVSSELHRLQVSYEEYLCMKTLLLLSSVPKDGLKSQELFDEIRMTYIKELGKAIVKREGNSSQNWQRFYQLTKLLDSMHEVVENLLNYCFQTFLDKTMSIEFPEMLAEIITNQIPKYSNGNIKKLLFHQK

Assay [5] addresses T1, Gamma-aminobutyric acid receptor subunit alpha-1. In kind it is functional.
In the next assay the target is T5, Progesterone receptor (Homo sapiens, UniProt P06401).
T5 sequence (P06401 whole entry): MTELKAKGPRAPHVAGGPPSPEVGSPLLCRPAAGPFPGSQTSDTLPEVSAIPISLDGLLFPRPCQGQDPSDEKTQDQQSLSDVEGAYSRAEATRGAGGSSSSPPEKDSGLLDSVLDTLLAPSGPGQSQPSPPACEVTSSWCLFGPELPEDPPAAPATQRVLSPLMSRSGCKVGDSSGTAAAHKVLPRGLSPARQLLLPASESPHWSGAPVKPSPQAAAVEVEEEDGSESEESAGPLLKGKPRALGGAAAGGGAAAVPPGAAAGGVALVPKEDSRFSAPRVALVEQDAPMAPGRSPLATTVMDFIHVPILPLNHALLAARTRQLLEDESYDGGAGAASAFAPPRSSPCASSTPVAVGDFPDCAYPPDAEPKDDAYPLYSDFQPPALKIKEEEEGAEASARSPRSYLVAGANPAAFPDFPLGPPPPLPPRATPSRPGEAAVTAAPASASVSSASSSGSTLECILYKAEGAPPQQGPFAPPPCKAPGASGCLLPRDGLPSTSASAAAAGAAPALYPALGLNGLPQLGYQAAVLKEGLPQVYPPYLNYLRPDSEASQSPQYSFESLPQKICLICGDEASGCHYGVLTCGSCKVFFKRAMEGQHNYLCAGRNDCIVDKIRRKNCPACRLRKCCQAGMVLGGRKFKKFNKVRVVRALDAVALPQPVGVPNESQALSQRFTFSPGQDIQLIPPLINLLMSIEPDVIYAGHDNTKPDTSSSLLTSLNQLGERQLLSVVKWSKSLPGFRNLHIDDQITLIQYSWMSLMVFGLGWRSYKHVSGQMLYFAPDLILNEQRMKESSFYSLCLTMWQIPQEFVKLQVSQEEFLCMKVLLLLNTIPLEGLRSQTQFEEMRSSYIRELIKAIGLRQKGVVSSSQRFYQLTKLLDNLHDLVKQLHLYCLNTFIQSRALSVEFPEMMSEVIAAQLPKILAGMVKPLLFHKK
It counts as functional.

For assay [6], the target named is Beta-2 adrenergic receptor (Homo sapiens, UniProt P07550).
Assay [7] has as its target Voltage-dependent L-type calcium channel subunit alpha-1C (Rattus norvegicus, UniProt P22002). It counts as functional.
Further: assay procedure not described here.

Histamine H3 receptor, sequence (Q9Y5N1 whole entry): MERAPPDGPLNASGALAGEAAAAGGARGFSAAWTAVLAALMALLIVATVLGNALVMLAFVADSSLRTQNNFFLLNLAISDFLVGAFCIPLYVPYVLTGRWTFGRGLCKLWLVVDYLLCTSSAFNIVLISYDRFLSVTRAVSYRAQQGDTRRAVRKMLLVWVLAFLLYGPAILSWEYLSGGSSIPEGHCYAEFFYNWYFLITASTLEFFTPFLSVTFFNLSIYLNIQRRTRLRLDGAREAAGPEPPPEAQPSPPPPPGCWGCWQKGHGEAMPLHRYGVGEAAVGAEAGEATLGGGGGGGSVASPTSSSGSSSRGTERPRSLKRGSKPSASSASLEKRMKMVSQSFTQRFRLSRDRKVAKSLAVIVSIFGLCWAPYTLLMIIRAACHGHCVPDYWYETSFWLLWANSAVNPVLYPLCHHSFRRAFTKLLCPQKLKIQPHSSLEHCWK
Adenosine receptor A2a, sequence (P29274 whole entry): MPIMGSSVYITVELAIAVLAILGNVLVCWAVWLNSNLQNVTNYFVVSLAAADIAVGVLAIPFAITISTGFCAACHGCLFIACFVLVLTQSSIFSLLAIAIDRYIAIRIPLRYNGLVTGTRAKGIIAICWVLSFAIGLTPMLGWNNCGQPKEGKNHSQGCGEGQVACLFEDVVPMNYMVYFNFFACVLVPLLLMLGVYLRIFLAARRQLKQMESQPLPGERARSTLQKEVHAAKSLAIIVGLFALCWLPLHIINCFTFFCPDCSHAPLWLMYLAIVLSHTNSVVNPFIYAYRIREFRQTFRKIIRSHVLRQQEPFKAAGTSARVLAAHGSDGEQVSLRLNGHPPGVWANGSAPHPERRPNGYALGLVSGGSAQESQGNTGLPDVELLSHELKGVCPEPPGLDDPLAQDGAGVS
T1 sequence (P62813 whole entry): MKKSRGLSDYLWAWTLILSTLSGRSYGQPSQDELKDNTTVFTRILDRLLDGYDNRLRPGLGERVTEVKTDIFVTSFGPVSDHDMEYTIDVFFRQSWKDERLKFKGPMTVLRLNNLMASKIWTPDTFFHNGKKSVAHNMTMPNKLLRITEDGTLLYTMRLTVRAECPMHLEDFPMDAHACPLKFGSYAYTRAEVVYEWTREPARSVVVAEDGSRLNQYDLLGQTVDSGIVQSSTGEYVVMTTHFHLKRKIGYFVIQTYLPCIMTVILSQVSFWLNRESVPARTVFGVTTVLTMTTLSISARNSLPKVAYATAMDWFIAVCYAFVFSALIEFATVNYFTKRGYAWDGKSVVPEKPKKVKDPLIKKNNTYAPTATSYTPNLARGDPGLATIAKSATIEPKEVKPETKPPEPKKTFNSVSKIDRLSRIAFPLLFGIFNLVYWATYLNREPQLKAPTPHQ
Voltage-dependent L-type calcium channel subunit alpha-1C, sequence (P22002 whole entry): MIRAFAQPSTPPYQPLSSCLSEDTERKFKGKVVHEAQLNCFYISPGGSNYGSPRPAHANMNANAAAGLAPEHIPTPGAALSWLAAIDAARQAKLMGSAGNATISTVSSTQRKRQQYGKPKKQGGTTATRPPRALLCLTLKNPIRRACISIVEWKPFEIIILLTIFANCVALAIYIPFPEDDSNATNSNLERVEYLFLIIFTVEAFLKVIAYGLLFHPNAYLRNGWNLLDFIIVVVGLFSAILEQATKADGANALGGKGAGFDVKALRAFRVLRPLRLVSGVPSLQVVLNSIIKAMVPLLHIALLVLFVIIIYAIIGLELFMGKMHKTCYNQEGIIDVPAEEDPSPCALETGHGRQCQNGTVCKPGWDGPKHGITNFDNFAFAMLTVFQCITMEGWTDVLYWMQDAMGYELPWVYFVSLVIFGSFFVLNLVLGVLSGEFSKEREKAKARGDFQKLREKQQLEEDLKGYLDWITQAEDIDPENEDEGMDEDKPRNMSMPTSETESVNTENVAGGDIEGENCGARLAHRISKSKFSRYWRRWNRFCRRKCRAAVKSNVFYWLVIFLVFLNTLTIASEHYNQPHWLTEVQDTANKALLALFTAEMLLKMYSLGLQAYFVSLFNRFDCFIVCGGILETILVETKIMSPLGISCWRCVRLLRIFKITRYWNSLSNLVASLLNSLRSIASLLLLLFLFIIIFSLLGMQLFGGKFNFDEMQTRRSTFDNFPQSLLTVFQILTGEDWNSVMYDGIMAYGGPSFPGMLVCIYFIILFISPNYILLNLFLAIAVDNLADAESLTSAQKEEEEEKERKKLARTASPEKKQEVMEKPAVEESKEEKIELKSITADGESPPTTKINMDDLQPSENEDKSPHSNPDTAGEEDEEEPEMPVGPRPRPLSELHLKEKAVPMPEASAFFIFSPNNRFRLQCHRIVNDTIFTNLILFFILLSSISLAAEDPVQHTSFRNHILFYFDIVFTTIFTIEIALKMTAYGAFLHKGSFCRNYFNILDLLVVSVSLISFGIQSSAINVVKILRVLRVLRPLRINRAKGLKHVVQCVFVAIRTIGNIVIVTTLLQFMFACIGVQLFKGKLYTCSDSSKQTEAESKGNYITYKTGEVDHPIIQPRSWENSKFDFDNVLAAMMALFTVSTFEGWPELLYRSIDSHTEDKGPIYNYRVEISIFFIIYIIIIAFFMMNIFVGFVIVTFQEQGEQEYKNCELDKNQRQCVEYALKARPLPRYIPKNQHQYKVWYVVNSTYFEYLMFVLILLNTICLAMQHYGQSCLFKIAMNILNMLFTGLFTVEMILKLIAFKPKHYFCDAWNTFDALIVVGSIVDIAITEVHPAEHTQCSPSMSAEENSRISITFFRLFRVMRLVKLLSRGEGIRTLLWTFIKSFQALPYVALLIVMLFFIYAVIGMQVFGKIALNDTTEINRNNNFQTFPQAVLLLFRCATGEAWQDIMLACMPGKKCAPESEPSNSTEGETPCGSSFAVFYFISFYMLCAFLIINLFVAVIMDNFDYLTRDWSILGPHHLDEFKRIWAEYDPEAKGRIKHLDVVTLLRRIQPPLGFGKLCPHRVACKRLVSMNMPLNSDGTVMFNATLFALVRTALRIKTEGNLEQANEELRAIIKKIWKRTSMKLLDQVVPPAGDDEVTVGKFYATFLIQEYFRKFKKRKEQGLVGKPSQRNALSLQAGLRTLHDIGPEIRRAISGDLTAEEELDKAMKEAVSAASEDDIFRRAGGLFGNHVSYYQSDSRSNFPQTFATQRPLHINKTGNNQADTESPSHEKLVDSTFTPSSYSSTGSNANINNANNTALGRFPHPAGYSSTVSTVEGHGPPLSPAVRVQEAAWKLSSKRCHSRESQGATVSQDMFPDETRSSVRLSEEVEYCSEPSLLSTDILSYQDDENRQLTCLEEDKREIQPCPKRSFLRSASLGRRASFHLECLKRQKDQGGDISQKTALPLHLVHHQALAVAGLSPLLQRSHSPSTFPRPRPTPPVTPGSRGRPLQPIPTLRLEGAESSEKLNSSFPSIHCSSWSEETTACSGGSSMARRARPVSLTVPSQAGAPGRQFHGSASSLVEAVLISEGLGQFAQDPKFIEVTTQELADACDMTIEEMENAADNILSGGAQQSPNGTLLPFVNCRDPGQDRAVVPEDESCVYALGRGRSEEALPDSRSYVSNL
Growth hormone secretagogue receptor type 1, sequence (Q92847 whole entry): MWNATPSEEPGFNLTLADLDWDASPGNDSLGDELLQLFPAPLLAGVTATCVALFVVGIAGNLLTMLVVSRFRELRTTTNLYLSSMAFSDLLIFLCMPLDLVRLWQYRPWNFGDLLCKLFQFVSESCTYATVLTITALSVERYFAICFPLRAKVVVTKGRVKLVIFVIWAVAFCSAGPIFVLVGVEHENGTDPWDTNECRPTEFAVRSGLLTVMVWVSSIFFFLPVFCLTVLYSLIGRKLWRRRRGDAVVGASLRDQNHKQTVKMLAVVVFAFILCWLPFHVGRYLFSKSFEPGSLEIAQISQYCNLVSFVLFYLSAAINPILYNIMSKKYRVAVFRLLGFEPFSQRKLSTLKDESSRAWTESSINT
Beta-2 adrenergic receptor, sequence (P07550 whole entry): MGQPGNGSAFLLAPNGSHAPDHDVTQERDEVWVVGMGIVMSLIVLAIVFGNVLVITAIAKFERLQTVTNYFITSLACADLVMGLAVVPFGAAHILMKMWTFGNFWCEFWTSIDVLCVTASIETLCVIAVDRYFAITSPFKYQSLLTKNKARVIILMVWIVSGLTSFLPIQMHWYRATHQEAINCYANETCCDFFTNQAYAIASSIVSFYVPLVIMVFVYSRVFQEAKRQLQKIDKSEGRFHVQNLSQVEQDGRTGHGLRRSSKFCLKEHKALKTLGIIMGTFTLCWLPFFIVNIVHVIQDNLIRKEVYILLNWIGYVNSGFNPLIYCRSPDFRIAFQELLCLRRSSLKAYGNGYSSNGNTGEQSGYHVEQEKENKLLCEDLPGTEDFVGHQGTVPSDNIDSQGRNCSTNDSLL

Broadly, the AC50 is the concentration giving half of the maximal activity seen. For `COc1ccccc1OCCNCC(O)c1ccc(C)c(S(N)(=O)=O)c1` (stereo not drawn) [AMOSULALOL], the AC50 (in [1]; in assay [2]; in assay [3]; at Histamine H3 receptor; at Adenosine receptor A2a; in assay [4]) was over 30 µM each time. Further, the half-maximal activity concentration (AC50) is over 30 µM on Glucocorticoid receptor; over 30 µM in assay [5]; over 30 µM on Progesterone receptor; 0.1 µM in assay [6]; over 30 µM in assay [7].

With `CCOC(=O)OC(C)OC1=C(C(=O)Nc2ccccn2)N(C)S(=O)(=O)c2ccccc21` (stereo not drawn) [AMPIROXICAM], the half-maximal activity concentration (AC50) (in assay [1]; in assay [2]; in assay [3]; at Histamine H3 receptor; at Adenosine receptor A2a; in assay [4]) was over 30 µM each time. The AC50 (at Glucocorticoid receptor; in [5]; on Progesterone receptor; in assay [6]; in [7]) was over 30 µM each time.

`CC(C[N+](C)(C)C)OC(N)=O` (stereo not drawn) [BETHANECHOL]: the concentration at half-maximal activity (AC50) in assay [1] is over 10 µM; in assay [2], over 10 µM; in assay [3] it was 3.9 µM; at Histamine H3 receptor, over 10 µM; on Adenosine receptor A2a it was over 10 µM; in [4], over 10 µM. Also, the AC50 (at Glucocorticoid receptor; in assay [5]; at Progesterone receptor; in assay [6]; in [7]) was over 10 µM in each case.

As to `O=C(O)C1=C(CSc2nnnn2CS(=O)(=O)O)CS[C@@H]2[C@H](NC(=O)[C@H](O)c3ccccc3)C(=O)N12` [CEFONICID], the half-maximal activity concentration (AC50) (in [1]; in [2]; in assay [3]; at Histamine H3 receptor; on Adenosine receptor A2a; in [4]) was over 30 µM each time. Further, the AC50 (on Glucocorticoid receptor; in assay [5]; on Progesterone receptor; in assay [6]; in [7]) was over 30 µM each time.

Take `Cc1cc(O)c(C(=O)N[C@@H](C(=O)N[C@@H]2C(=O)N3C(C(=O)O)=C(CSc4nnnn4C)CS[C@H]23)c2ccc(O)cc2)cn1` [CEFPIRAMIDE]: the half-maximal activity concentration (AC50) (in [1]; in assay [2]; in [3]; at Histamine H3 receptor; at Adenosine receptor A2a; in assay [4]) was over 30 µM each time. Besides, the half-maximal activity concentration (AC50) (at Glucocorticoid receptor; in [5]; on Progesterone receptor; in [6]; in assay [7]) was over 30 µM in each case.

Turning to `Nc1nc(/C(=C/CC(=O)O)C(=O)N[C@@H]2C(=O)N3C(C(=O)O)=CCS[C@H]23)cs1` [CEFTIBUTEN], the AC50 (in [1]; in assay [2]; in [3]; on Histamine H3 receptor; on Adenosine receptor A2a; in assay [4]) was over 30 µM each time. Further, the concentration at half-maximal activity (AC50) (at Glucocorticoid receptor; in assay [5]; on Progesterone receptor; in assay [6]; in [7]) was over 30 µM in each case.

Regarding `CC(C)Cn1cnc2c(N)nc3ccccc3c21` [IMIQUIMOD], the half-maximal activity concentration (AC50) in assay [1] was over 10 µM; in assay [2], over 10 µM; in assay [3], over 10 µM; at Histamine H3 receptor, over 10 µM; on Adenosine receptor A2a, 19.5 µM; in [4], over 10 µM. The AC50 (at Glucocorticoid receptor; in assay [5]; at Progesterone receptor; in assay [6]; in [7]) was over 10 µM throughout.

Consider `CCC(C(=O)O)c1ccc(N2Cc3ccccc3C2=O)cc1` (stereo not drawn) [INDOBUFEN], for which the half-maximal activity concentration (AC50) (in [1]; in assay [2]; in assay [3]; on Histamine H3 receptor; on Adenosine receptor A2a; in [4]) was over 30 µM in each case. Moreover, the AC50 (on Glucocorticoid receptor; in assay [5]; on Progesterone receptor; in [6]; in assay [7]) was over 30 µM in each case.

(Values after ChEMBL document CHEMBL5291721, “A preclinical secondary pharmacology resource illuminates target-adverse drug reaction associations of marketed drugs” (Nat Commun, 2023).)
